Experimental findings from publication PMC8605905 (Oxidative Medicine and Cellular Longevity, 2021) are described below.

Format in all cases: cell-based, Human
The subject of assay [1] is caspase 1. Briefly: Caspase 1 activity in Aβ-GFP cells. To be noted: 5 μM, vs untreated cells. Here is the method:
(§1) Aβ-GFP or ∆K280 tauRD-DsRed SH-SY5Y cells were seeded into 6-well plates (5 × 10^5/well) and treated with retinoic acid, coumarin-chalcone derivatives, and doxycycline as previously described. On day 8, cells were collected and lysates were prepared with six freeze/thaw cycles. The supernatant was collected by centrifugation, followed by measurement of the caspase 1 activity in 50 μg aliquots of cell extract using the ICE fluorometric assay kit (BioVision, Milpitas, CA, USA). Following incubation of the mixture at 37°C for 2 h, fluorescence was measured with excitation/emission wavelengths at 400/505 nm (FLx800 fluorescence microplate reader). In addition, the collected cells were lysed by sonication. Acetylcholinesterase (AChE) activity in the supernatant was determined in 10 μg aliquots of cell extracts using the AChE activity assay kit (Sigma-Aldrich) according to the manufacture's protocol. Finally, the absorbance at 412 nm was measured using a Multiskan GO spectrophotometer (Thermo Fisher Scientific).

Assay [2] relates to caspase 1. As to the kind of experiment: Caspase 1 activity in ΔK280 tauRD-DsRed cells. The note with it: 10 μM, ∆K280 tauRD-DsRed cells. As to the method:
as §1

For assay [3], the system named is Aβ-GFP SH-SY5Y cells. Briefly: ROS assay (CellROX Orange) in Aβ-GFP cells. The note with it: tested 1.2–5 μM. Here is the method: On day 1, Aβ-GFP or ∆K280 tauRD-DsRed SH-SY5Y cells were seeded into 96-well plates (2.5 × 10^4/well) and treated with retinoic acid (10 μM; Sigma-Aldrich) to prompt neuronal differentiation. […] On day 8, cells were stained with Hoechst 33342 (0.1 μg/ml; Sigma-Aldrich) for 30 min, and cell images were automatically captured at excitation/emission wavelengths of 482/[…] (GFP fluorescence) or 543/593 nm (DsRed fluorescence) using a high content analysis (HCA) system (Micro Confocal High-Content Imaging System). Image Acquisition and Analysis Software (MetaXpress) (Molecular Devices, Sunnyvale, CA, USA) was used to analyse the images. CellROX Orange (5 μM; Molecular Probes, Eugene, OR, USA) (for Aβ-GFP cells) or dichloro-dihydro-fluorescein diacetate (DCFH-DA, 10 μM; Invitrogen) (for ∆K280 tauRD-DsRed cells) was added to the cells and incubated at 37°C for 30 min. The HCA system was used to measure intracellular ROS at 531/593 nm (CellROX Orange fluorescence) or 482/536 nm (DCFH-DA fluorescence) of excitation/emission wavelengths.

Assay [4] relates to ∆K280 tauRD-DsRed SH-SY5Y cells. Briefly: High content analysis of neurite outgrowth in ΔK280 tauRD-DsRed cells. The note with it: 10 μM. As to the method: On day 1, Aβ-GFP or ∆K280 tauRD-DsRed SH-SY5Y cells were plated into 24-well plates (6 × 10^4/well) followed by addition of retinoic acid. On day 2, cells were treated with coumarin-chalcone derivatives (5 or 10 μM) and with doxycycline (5 or 2 μg/ml) to induce the expression of Aβ-GFP or ∆K280 tauRD-DsRed. On day 8, 4% paraformaldehyde, 0.1% Triton X-100, and 3% BSA were used to fix, permeabilize, and block cells, respectively. Subsequently, the cells were stained with TUBB3 (neuronal class III β-tubulin) primary antibody (1 : 1000; Covance, Princeton, NJ, USA) at 4°C overnight. Goat anti-rabbit Alexa Fluor 555 secondary antibody (1 : 1000; Thermo Fisher Scientific) was then added, followed by a 3 h incubation at room temperature. Following staining nuclei with 4′,-6-diamidino-2-phenylindole (DAPI) (0.1 μg/ml; Sigma-Aldrich), the neurons were imaged by using the HCA system and analysed by using the Neurite Outgrowth Application Module (MetaXpress; Molecular Devices).
To monitor the cAMP-mediated signal transduction pathway, CRE-GFP 293 cells in 6-well plates (1 × 10^6/well) were pretreated with kinase inhibitor H-89 (LC Laboratories, Woburn, MA, USA), KN-62 (Cayman Chemical, Ann Arbor, MI, USA), U0126 (LC Laboratories), or wortmannin (LC Laboratories) (10 μM) for 4 h before forskolin or LM-021 (10 μM) addition for 5 h. GFP fluorescence/protein and total/phosphorylated PKA, CaMKII, ERK, PI3K, and CREB levels were examined. In addition, Aβ-GFP or ∆K280 tauRD-DsRed SH-SY5Y cells were treated with retinoic acid (10 μM) on day 1, followed by the addition of LM-021 (5 or 10 μM) and doxycycline (5 or 2 μg/ml) on day 2, as described. Kinase inhibitors (10 μM) were added on day 6. On day 8, the cells were collected for protein expression analysis of BDNF, BCL2 (BCL2 apoptosis regulator), and BAX (BCL2 associated X, apoptosis regulator), and total/phosphorylated PKA, CaMKII, ERK, PI3K, and CREB. Also, cells were stained with DAPI and assessed for neurite outgrowth as described above.

For assay [5], the system named is Aβ-GFP SH-SY5Y cells. Briefly: Real-time PCR of Aβ-GFP RNA. The note with it: 5 μM. As to the method:
To measure the Aβ-GFP/tauRD-DsRed RNA expression on day 8, total RNA was extracted from collected cells and reverse-transcribed to cDNA (SuperScript III reverse transcriptase; Invitrogen, Waltham, MA, USA). Real-time quantitative PCR was performed using 100 ng of cDNA and the gene-specific TaqMan fluorogenic probe PN4331348 (EGFP) or customized Assays-by-Design probe for DsRed and 4326321E (HPRT1) (StepOnePlus Real-time PCR system, Applied Biosystems, Foster City, CA, USA). The RNA expression level was calculated using the formula 2^ΔCt, ΔCT = CT (control) − CT (target), in which CT indicates the cycle threshold.
Background: In qPCR the cycle at which signal appears reflects the starting amount.

Entries after “also recorded” stand apart in the source; their conditions may differ.

For `CN(C)c1ccc(/C=C/C(=O)c2c(O)c3ccccc3oc2=O)cc1` [LM-021, (E)-3-(3-(4-(dimethylamino)phenyl)acryloyl)-4-hydroxy-2H-chromen-2-one], the entries for the “Caspase 1 activity” value in the assay with caspase 1 [1] and in the assay with caspase 1 [2] were “reduced” and “lowered caspase 1 activity”, respectively. Also, the “Concentration effectively decreasing ROS levels caused by Aβ overexpression” value with Aβ-GFP SH-SY5Y cells [3] lay within 1.2 to 5 µM. The “Neurite length and branches” value in assay [4] is on record as “successfully ameliorated; also recorded: ameliorated the defects”. In addition, in the assay on Aβ-GFP SH-SY5Y cells [5], the “Aβ-GFP RNA levels” value is listed as “did not significantly modify”.
